Experimental data taken from article PMC2191741 (The Journal of Experimental Medicine, 1994).

Legend:
[1] = test system: human polyclonal IgM RF binding to mAb II-481; conditions: text summary across the individual polyclonal IgM RFs tested
gE of HSV-1 = assay: ELISA of hybridoma supernatants with isolated gE and whole HSV-1; type: binding; conditions: hybridoma supernatant; isolated gE 5 ug/ml

inhibition of RF binding to mAb II-481 by single inhibitor [1] | Molecule | reactivity with isolated gE and whole HSV-1 by ELISA (gE of HSV-1)
80-100% | HIWWNDN | 
No inhibition | CIKVAVS [reference compound] | 
62-90% | SGVPDRF | 
complete inhibition | mAb II-481: IgG-2b mouse mAb directed at gE of HSV-1 (antibody, V domains shown) VH: GILQPSQTLSLTCSFSGFSLTTYGIGVGWIRQPSGKGLEWLAHIWWNDNKFYNTVLKSRLTISRDTSNNQVFLRIASMDTADTATYYCARMRDGAWFAYWGQGTLVTVSA VL: SLAVSAGEKVTMTCKSSQSVLYSSDHKNYLAWYQQKPGQSPKLLIYWASTRESGVPDRFTGSGSGTDFTLTINNVQTEDLAVYFCHQYLSSFTFGGGTKLEIQ | strong anti-gE specificity
